The values below come from ChEMBL document CHEMBL2440009, “Discovery of GSK2656157: An Optimized PERK Inhibitor Selected for Preclinical Development” (ACS Med Chem Lett, 2013).

Molecules are shown by their SMILES.

One series has as its target T1, Cytochrome P450 2C8 (Homo sapiens, UniProt P10632).
T1 sequence (P10632 whole entry): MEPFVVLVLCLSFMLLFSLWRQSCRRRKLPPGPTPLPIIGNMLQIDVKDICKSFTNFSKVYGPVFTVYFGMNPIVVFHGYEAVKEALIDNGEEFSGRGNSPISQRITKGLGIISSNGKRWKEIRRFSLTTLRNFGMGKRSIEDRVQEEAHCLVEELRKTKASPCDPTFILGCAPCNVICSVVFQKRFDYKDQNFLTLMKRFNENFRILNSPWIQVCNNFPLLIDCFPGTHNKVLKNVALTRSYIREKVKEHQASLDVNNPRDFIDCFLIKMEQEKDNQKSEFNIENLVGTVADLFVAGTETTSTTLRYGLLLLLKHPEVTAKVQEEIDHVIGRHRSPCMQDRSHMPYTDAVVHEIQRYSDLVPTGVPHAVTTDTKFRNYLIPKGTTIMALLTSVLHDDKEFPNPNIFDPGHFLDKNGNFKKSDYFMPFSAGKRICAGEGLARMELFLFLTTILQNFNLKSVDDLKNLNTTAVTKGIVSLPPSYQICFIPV
Kind of series: Inhibition of CYP2C8 in human liver microsomes using paclitaxel as substrate after 5 to 60 mins by LC-MS/MS analysis. The series is classed as ADME, Microsome.

The target of another series is Cytochrome P450 2D6 (Homo sapiens, UniProt P10635). Description: Inhibition of CYP2D6 in human liver microsomes using bufuralol as substrate after 5 to 60 mins by LC-MS/MS analysis. The series is classed as ADME, Microsome. For orientation: Microsomes from liver hold many membrane-bound enzymes, among them those of drug oxidation.
In series [1] the target is T2, Eukaryotic translation initiation factor 2-alpha kinase 3 (Homo sapiens, UniProt Q9NZJ5).
T2 sequence (Q9NZJ5 whole entry): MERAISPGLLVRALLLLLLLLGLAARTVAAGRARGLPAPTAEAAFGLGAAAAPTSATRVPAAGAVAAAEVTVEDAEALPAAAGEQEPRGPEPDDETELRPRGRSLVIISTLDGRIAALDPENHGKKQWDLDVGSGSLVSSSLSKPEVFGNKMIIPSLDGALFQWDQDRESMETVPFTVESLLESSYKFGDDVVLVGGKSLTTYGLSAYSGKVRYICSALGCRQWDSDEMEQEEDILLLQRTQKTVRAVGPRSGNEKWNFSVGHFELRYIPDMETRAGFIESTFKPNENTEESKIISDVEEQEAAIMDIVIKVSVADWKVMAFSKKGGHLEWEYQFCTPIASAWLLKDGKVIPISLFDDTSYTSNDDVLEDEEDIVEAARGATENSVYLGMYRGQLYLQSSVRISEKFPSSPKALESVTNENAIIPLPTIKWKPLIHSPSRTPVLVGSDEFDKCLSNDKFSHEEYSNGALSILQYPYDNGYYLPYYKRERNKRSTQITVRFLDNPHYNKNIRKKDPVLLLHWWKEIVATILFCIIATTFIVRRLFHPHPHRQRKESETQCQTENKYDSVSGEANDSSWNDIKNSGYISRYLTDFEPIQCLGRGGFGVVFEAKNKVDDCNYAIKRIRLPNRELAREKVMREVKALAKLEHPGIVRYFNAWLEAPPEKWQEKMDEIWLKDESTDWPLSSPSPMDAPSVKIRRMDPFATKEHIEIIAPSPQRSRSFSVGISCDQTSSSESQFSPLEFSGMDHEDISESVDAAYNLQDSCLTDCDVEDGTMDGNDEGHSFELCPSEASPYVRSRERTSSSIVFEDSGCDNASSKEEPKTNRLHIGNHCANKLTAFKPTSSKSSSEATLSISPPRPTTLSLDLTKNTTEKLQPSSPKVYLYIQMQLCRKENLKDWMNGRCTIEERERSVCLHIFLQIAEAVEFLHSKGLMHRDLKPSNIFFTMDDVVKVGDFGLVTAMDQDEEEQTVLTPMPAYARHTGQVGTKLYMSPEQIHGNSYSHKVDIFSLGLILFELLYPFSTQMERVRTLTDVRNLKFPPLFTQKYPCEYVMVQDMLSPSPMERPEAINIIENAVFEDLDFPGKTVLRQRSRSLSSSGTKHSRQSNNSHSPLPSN
Kind of series: Inhibition of thapsigargin-induced autophosphorylation of PERK in human A549 cells preincubated for 1 hr followed by thapsigargin-induction measured after 1 hr by Western blotting analysis. The series is classed as cell-based. (A western blot detects proteins with antibodies after separation by electrophoresis.)

Series [2] deals with T2, Eukaryotic translation initiation factor 2-alpha kinase 3. Kind of series: Inhibition of GST-tagged PERK cytoplasmic domain (536 to 1116) (unknown origin) assessed as biotinylated His6-tagged EIF2alpha phosphorylation preincubated for 30 mins followed by ATP and eIF2alpha addition measured after 1 hr by HTRF assay.
A short description of series [3]: Blood clearance in Sprague-Dawley rat at 2.2 mg/kg, iv by LC-MS/MS analysis. It is filed as ADME, organism-based. Details: dose 2.2 mg/kg, route intravenous. To be noted: whole blood.
For series [4], the target named is Eukaryotic translation initiation factor 2-alpha kinase 1 (Homo sapiens, UniProt Q9BQI3). Kind of series: Inhibition of HRI (unknown origin) assessed as EIF2AK1 phosphorylation.
In a further series the target is Cytochrome P450 2C9 (Homo sapiens, UniProt P11712). Kind of series: Inhibition of CYP2C9 in human liver microsomes using diclofenac as substrate after 5 to 60 mins by LC-MS/MS analysis. The series is classed as ADME, Microsome.
In a further series the target is Cytochrome P450 2C19 (Homo sapiens, UniProt P33261). Description: Inhibition of CYP2C19 in human liver microsomes using mephenytoin as substrate after 5 to 60 mins by LC-MS/MS analysis. The series is classed as ADME, Microsome.
In series [5] the target is Interferon-induced, double-stranded RNA-activated protein kinase (Homo sapiens, UniProt P19525). Description: Inhibition of PKR (unknown origin) assessed as EIF2AK2 phosphorylation.
Series [6] concerns the target T3, Cytochrome P450 3A4 (Homo sapiens, UniProt P08684). Description: Inhibition of CYP3A4 in human liver microsomes using midazolam as substrate after 5 to 60 mins by LC-MS/MS analysis. The series is classed as ADME, Microsome.
The target in another series is T4, Cytochrome P450 1A2 (Homo sapiens, UniProt P05177).
T4 sequence (P05177 whole entry): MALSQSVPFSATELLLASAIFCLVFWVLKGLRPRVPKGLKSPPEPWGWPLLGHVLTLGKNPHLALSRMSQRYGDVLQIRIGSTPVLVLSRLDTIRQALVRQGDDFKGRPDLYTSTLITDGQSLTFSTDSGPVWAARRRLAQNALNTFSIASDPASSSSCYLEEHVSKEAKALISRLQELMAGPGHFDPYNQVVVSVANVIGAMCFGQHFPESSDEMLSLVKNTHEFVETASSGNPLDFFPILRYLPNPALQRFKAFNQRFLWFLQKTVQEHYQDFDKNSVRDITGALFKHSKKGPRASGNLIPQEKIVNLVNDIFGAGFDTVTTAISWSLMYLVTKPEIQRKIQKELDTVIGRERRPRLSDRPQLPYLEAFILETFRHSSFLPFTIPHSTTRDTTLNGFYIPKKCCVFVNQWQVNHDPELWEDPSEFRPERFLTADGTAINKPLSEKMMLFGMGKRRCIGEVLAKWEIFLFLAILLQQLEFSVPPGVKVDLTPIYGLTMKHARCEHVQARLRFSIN
Kind of series: Inhibition of CYP1A2 in human liver microsomes using phenacetin as substrate after 5 to 60 mins by LC-MS/MS analysis. It is filed as ADME, Microsome.

Series [7] deals with T3, Cytochrome P450 3A4. Description: Inhibition of CYP3A4 in human liver microsomes using nifedipine as substrate after 5 to 60 mins by LC-MS/MS analysis. The series is classed as ADME, Microsome.
A further series deals with eIF-2-alpha kinase GCN2 (Homo sapiens, UniProt Q9P2K8). Kind of series: Inhibition of GCN2 (unknown origin) assessed as EIF2AK4 phosphorylation.
eIF-2-alpha kinase GCN2, sequence (Q9P2K8 whole entry): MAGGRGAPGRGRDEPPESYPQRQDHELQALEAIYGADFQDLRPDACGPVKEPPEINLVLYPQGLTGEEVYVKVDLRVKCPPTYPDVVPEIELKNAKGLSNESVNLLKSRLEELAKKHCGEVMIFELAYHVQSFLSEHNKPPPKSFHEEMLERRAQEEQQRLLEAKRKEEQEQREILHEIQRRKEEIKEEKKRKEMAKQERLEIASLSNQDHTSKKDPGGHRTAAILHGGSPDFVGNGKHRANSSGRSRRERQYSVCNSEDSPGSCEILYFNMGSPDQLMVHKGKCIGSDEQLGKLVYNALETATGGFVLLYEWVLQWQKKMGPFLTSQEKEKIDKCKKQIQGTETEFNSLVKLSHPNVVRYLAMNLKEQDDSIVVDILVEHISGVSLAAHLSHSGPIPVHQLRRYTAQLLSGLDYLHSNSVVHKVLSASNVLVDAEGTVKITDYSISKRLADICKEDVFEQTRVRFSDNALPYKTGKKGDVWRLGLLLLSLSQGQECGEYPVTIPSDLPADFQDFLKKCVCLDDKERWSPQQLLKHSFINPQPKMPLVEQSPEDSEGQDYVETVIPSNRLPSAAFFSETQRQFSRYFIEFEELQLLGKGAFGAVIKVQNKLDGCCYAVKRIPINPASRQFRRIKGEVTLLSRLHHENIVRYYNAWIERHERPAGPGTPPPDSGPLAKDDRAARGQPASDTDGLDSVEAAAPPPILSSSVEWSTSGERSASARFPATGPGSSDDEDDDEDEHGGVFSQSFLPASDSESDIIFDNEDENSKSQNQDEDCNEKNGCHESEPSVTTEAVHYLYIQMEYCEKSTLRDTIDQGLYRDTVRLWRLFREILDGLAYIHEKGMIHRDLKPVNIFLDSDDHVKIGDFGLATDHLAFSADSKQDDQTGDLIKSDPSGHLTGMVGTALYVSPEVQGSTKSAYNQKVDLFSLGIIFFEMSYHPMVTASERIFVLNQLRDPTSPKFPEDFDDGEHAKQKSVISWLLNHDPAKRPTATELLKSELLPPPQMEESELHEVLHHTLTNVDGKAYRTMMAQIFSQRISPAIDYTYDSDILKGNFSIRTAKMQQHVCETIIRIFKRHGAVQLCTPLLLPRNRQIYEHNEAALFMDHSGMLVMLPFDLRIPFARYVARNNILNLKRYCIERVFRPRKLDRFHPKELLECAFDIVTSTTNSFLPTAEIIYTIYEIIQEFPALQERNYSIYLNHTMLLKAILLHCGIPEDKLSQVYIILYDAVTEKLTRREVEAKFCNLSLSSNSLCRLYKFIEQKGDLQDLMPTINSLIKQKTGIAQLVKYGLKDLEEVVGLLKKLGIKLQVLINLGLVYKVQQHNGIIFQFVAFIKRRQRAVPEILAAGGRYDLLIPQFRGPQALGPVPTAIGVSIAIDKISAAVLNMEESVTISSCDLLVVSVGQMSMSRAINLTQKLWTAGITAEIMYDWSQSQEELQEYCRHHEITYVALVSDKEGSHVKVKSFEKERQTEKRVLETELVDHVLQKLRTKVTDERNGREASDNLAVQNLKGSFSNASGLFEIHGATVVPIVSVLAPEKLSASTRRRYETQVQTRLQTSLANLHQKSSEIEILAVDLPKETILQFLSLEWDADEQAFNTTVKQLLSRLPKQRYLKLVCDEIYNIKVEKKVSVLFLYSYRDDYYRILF

T3 sequence (P08684 whole entry): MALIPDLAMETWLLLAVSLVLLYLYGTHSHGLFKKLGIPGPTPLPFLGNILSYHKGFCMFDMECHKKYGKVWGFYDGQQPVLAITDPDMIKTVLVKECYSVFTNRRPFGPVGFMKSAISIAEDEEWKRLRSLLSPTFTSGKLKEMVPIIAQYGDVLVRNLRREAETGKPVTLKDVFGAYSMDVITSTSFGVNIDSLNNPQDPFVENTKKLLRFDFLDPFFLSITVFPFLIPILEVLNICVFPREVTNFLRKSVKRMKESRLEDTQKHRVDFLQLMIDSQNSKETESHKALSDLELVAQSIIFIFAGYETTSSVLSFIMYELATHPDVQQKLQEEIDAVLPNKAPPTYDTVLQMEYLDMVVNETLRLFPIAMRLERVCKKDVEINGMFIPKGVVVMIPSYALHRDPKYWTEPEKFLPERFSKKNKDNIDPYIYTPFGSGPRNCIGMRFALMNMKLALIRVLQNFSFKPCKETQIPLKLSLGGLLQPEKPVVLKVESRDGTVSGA
Cytochrome P450 2C9, sequence (P11712 whole entry): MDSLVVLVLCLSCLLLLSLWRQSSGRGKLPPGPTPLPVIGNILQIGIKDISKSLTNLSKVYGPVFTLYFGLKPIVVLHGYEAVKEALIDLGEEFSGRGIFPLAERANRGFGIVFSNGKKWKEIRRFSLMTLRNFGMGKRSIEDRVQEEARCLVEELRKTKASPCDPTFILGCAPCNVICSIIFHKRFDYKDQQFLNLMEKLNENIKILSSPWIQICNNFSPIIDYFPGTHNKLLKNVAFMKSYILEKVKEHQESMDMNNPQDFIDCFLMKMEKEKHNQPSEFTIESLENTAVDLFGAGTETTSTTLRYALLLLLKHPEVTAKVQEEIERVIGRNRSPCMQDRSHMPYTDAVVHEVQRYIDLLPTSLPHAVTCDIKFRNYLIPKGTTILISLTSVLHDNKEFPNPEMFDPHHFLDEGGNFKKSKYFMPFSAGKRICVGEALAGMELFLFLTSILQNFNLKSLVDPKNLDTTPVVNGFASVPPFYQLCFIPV
Eukaryotic translation initiation factor 2-alpha kinase 1, sequence (Q9BQI3 whole entry): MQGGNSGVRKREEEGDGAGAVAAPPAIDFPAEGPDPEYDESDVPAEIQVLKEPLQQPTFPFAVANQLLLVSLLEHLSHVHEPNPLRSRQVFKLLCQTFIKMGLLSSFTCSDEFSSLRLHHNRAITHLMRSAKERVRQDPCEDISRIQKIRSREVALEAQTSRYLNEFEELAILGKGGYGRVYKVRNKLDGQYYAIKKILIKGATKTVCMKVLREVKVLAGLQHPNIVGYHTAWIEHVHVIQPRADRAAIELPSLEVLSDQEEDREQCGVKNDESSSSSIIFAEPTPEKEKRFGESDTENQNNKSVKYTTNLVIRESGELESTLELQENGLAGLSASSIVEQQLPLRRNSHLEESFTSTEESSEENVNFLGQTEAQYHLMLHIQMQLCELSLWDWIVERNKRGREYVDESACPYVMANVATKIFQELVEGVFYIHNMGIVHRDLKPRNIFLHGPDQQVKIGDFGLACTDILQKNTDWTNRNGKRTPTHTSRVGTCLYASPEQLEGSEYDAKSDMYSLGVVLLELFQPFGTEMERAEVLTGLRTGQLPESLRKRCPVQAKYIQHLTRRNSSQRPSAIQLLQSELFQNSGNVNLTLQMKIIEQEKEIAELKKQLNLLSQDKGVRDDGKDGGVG
Cytochrome P450 2C19, sequence (P33261 whole entry): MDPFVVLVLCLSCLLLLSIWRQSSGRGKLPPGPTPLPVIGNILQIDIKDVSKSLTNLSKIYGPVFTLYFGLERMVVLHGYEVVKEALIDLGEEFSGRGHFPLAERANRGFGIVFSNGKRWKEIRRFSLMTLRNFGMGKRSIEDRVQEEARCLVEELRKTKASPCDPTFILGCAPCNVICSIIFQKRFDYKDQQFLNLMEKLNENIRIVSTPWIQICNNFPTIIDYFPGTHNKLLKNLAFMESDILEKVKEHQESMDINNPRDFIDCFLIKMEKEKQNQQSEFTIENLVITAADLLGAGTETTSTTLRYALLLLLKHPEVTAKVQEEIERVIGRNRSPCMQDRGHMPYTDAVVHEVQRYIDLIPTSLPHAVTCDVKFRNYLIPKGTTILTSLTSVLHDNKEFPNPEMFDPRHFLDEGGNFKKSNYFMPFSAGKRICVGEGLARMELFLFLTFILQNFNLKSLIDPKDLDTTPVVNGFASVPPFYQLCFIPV
Interferon-induced, double-stranded RNA-activated protein kinase, sequence (P19525 whole entry): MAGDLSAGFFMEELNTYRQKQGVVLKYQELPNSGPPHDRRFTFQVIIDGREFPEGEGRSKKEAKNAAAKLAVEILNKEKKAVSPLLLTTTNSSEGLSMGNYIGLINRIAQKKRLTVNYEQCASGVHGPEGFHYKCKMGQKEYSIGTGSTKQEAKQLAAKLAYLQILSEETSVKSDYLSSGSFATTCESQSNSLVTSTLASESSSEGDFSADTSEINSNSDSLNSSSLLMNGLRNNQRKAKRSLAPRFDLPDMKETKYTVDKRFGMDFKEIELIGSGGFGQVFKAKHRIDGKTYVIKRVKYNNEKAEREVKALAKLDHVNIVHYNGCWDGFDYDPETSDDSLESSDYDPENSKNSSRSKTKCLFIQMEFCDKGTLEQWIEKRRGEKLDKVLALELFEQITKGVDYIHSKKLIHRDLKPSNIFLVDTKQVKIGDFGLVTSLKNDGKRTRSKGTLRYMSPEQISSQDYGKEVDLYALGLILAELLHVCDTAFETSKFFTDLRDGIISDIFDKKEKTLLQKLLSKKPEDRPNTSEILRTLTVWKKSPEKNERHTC
Cytochrome P450 2D6, sequence (P10635 whole entry): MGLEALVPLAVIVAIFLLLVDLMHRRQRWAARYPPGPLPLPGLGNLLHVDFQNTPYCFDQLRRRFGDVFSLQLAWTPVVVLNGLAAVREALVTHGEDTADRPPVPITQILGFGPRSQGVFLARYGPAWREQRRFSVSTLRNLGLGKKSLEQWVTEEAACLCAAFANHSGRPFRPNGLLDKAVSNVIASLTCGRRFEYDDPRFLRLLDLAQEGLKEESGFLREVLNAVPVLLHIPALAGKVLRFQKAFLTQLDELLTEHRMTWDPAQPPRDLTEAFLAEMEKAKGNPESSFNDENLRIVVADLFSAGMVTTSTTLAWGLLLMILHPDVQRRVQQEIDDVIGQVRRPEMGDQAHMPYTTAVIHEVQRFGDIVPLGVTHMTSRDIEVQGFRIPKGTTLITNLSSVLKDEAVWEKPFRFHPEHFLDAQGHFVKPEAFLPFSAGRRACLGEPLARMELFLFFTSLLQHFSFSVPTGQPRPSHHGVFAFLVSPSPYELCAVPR

As usually defined, the IC50 is the concentration needed to halve the response being measured. In general, clearance refers to the volume of plasma or blood freed of the substance per unit of time. Read a low clearance as inefficient removal. Consider `Cc1cc(C)n(CC(=O)N2CCc3c2ccc(-c2cn(C)c4ncnc(N)c24)c3F)n1`, for which the IC50 against Cytochrome P450 2C8 was above 25000 nM; against Cytochrome P450 2D6, above 25000 nM; in series [1] it was 30 nM; in [2], 2.7 nM; in series [4], 61 nM; against Cytochrome P450 2C9 it was above 25000 nM. In addition, the IC50 on Cytochrome P450 2C19 is above 25000 nM; in series [5], 99 nM; against Cytochrome P450 3A4 [6], above 25000 nM; at Cytochrome P450 1A2, above 25000 nM; against Cytochrome P450 3A4 [7], 20500 nM. In series [3], the clearance was determined as 1.9 mL/min/kg.

As to `Cc1cccc(CC(=O)N2CCc3cc(-c4cn(C)c5ncnc(N)c45)ccc32)n1`, the IC50 in series [1] was determined as 100 nM; in series [2], 2.5 nM. Besides, the clearance in series [3] worked out at 10.5 mL/min/kg.

For `Cn1cc(-c2ccc3c(c2F)CCN3C(=O)Cc2cccc(C(F)(F)F)n2)c2c(N)ncnc21`, the IC50 against Cytochrome P450 2C8 is 5830 nM; against Cytochrome P450 2D6, 23700 nM; in [1] it was below 30 nM; in series [2], 0.5 nM; in series [4] it was 37 nM; on Cytochrome P450 2C9 it was 19200 nM. The 50% inhibitory concentration (IC50) at Cytochrome P450 2C19 is above 25000 nM; at eIF-2-alpha kinase GCN2, 776 nM; in series [5] it was 359 nM; against Cytochrome P450 3A4 [6] it was 9090 nM; at Cytochrome P450 1A2, above 25000 nM; against Cytochrome P450 3A4 [7], 7400 nM. The compound also gave a clearance in [3] of 8.9 mL/min/kg.

As to `Cc1ccnn1CC(=O)N1CCc2cc(-c3cn(C)c4ncnc(N)c34)ccc21`, the IC50 in series [2] came out at 16.6 nM.

In the case of `Cc1cc(C)n(CC(=O)N2CCc3cc(-c4cn(C)c5ncnc(N)c45)ccc32)n1`, the values for the IC50 in series [1] and in series [2] were 100 nM and 1.9 nM, respectively. Further, the clearance in [3] turned out to be 2.8 mL/min/kg.

Consider `Cn1cc(-c2ccc3c(c2)CCN3C(=O)Cc2cccc(C(F)(F)F)n2)c2c(N)ncnc21`, for which the IC50 in [1] amounted to 30 nM; in [2], 0.5 nM. Further, the clearance in series [3] was 12.8 mL/min/kg.
